Data as given in US4008219A, “4-Benzazonine derivatives and process for preparation thereof” (Nihon Iyakuhin Kogyo Co., Ltd., priority 1973, dated 1977).
Structures can show the parent of a compound that is named as a salt.

Assays:
[1] = Hygroscopicity of the salt; assay type: physicochemical; conditions: crystalline salt, cis-form
guinea pigs [2] = test: Antitussive effect, Chemical Stimulus Method (SO2 gas); assay type: in vivo, guinea pig; conditions: for ED50: Cavia porcellus, sc, 0.5 h, read-out: ED50, Chemical Stimulus Method (antitussive); for Effect Ratio to Codeine Phosphate, Chemical Stimulus Method: codeine phosphate = 100
From the text: (§1) Results of comparative tests where the medicinal effects of compounds of this invention were compared with those of known compounds such as pentazocine and codeine phosphate by employing mice and guinea pigs as the test animals are shown in the following Tables I and II.
(§2) Comparison of Antitusive Effects
2) Takagi et al modification [Journal of Pharmaceutical Society of Japan,
80, 1497 (1960)] of the test method of H. Friebel, C. Reichle and A. V.
Gravenitz [Archiv Fur experimentalle Phathologie und Pharmakologie,
Naunyn-Schmiede-berg's, 224,384 (1955)], in which the test compound was
hypodermically injected into guinea pigs, 30 minutes after the injection
the quinea pigs were put into a desiccator filled with SO2 gas and
kept in the desiccator for 1 minute, then the guinea pigs were put into
another vessel and the degree of coughing was examined.

mice of the ddN-series [3] = test: Analgesic test, Chemical Stimulus Method (Writhing Method); assay type: in vivo, mouse; design: scale not given here; conditions: interabdominal injection, comparative value, scale not given
Description: as §1
Chemical Stimulus Method^1)
(interabdominal injection)
(§3) Tested Animal: mice of the ddN-series, .male., 20 ± 1 experimental
(§4) Conditions: temperature of 24 ± 1° C., relative humidity of 65
^1) R. Koster, M. Anderson and E. J. De Beer, Federation Proceedings, […]

Acute Toxicity = conditions: in vivo; mouse, intravenous injection
Description: as §3, §4

mice of the ddN-series [4] = test: Analgesic test, Pressure Stimulus Method; assay type: in vivo, mouse; conditions: hypodermic injection, comparative value, pentazocine 1.0
Description: as §1
Pressure Stimulus Method^3)
R (hypodermic injection)
as §3, §4
^3) A. F. Green, P. A. Yound and E. I. Godfrey; British Journal of
Pharmacology and Chemotherapy, 6, 572 (1951)

guinea pigs [5] = test: Antitussive effect, Mechanical Stimulus Method; assay type: in vivo, guinea pig; conditions: for ED50: Cavia porcellus, swine hairs inserted into the trachea; for Effect Ratio to Codeine Phosphate, Mechanical Stimulus Method: codeine phosphate = 100
From the text: as §1, §2
Mechanical Stimulus Method^1)
1) Takagi et al modification [Journal of the Pharmaceutical Society of
Japan, 80, 1497 (1960)] of the test method of H. Konzett and E. Rothlin
[Experientia, 10, 472 (1954)], in which urethane was hypodermically
injected (15 mg/Kg) into guinea pigs and swine hairs were inserted into
the trachea to impart stimulus.

mice of the ddN-series [6] = test: Analgesic test, Heat Stimulus Method (Hot Plate Method); assay type: in vivo, mouse; design: reference not given here; conditions: hypodermic injection, comparative value, scale not given
Description: as §1
Heat Stimulus Method^2)
as §3, §4
^2) G. Woolfe and A. D. Mac Donald; Journal of Pharmacology and […]

[7] = guinea pigs, hypodermic injection, SO2 gas, 1 minute, 30 minutes after injection

SMILES | hygroscopicity [1] | ED50 (guinea pigs [2]; [7]) [mg/kg] | Chemical Stimulus Method (Writhing Method) (mice of the ddN-series [3]) | LD50 (Acute Toxicity) [mg/kg] | Pressure Stimulus Method (mice of the ddN-series [4]) | ED50 (guinea pigs [5]) [mg/kg] | Heat Stimulus Method (Hot Plate Method) (mice of the ddN-series [6]) | other results
CCC12CCN(C)CC(C(O)c3ccc(OC)cc31)C2C (stereo not drawn) [Example 10, 4,12-dimethyl-1-ethyl-10-methoxy-2,3,4,5,6,7-hexahydro-1,6-methano-1H-4-benzazonin-7-ol] | very hygroscopic | – | – | – | – | – | – | –
COc1ccc2c(c1)C1(C)CCN(C)CC(C2O)C1C (stereo not drawn) [Example 12] | hygroscopic | – | – | – | – | – | – | –
CC1C2CN(C)CCC1(C)c1ccccc1C2O (stereo not drawn) [Example 15] | hygroscopic | – | – | – | – | – | – | –
CC1C2Cc3ccc(O)cc3C1(C)CCN(C)C2 (stereo not drawn) [Example 20] | hygroscopic | – | – | – | – | – | – | –
CCC12CCN(C)CC(Cc3ccc(O)cc31)C2C (stereo not drawn) [Example 22] | hygroscopic | – | – | – | – | – | – | –
CC1C2Cc3ccccc3C1(C)CCN(C)C2 (stereo not drawn) [Example 23] | hygroscopic | – | – | – | – | – | – | –
OC1c2ccccc2C2CCN(CCc3ccccc3)CC1C2 (stereo not drawn) [Example 59, hydrobromide] | – | – | – | – | – | – | – | solubility in water (Solubility in water): water-soluble
CC1C2Cc3ccc(O)cc3C1(C)CCN(CCc1ccccc1)C2 (stereo not drawn) [Example 87] | being hygro- | – | – | – | – | – | – | –
CC(C)CCN1CCC2(C)c3cc(O)ccc3CC(C1)C2C (stereo not drawn) [Example 89] | being hygro- | – | – | – | – | – | – | –
CC1C2Cc3ccc(O)cc3C1(C)CCN(C)C2 (stereo not drawn) [Example 90] | being hygro- | – | – | – | – | – | – | –
COc1ccc2c(c1)C1(C)CCN(C)CC(C1)C2O (stereo not drawn) [R=CH3O, R1=CH3, R2=H, CH2R3=CH3, R4=OH, 1,4-dimethyl-10-methoxy-2,3,4,5,6,7-hexahydro-1,6-methano-1H-4-benzazonin-7-ol] | – | 6.06 | 1.5 | 72 | 1.2 | 13.7 | 5.0 | Effect Ratio to Codeine Phosphate, Chemical Stimulus Method (guinea pigs [2]; guinea pigs, SO2 gas): 218.8; Effect Ratio to Codeine Phosphate, Mechanical Stimulus Method (guinea pigs [5]): 105.5
CN1CCC2(C)CC(C1)C(O)c1ccccc12 (stereo not drawn) [R=H, R1=CH3, R2=H, CH2R3=CH3, R4=OH, 1,4-dimethyl-2,3,4,5,6,7-hexahydro-1,6-methano-1H-4-benzazonin-7-ol] | – | 1.64 | 0.7 | 70 | 1.2 | 4.42 | 1.4 | Effect Ratio to Codeine Phosphate, Chemical Stimulus Method (guinea pigs [2]; guinea pigs, SO2 gas): 800.7; Effect Ratio to Codeine Phosphate, Mechanical Stimulus Method (guinea pigs [5]): 326.9
C=CCN1CCC2CC(Cc3ccccc32)C1 (stereo not drawn) [R=H, R1=H, R2=H, CH2R3=CH2CHCH2, R4=H, 4-allyl-2,3,4,5,6,7-hexahydro-1,6-methano-1H-4-benzazonine] | – | 12.7 | 1.4 | 45 | 1.5 | 7.42 | 5.0 | Effect Ratio to Codeine Phosphate, Chemical Stimulus Method (guinea pigs [2]; guinea pigs, SO2 gas): 104.7; Effect Ratio to Codeine Phosphate, Mechanical Stimulus Method (guinea pigs [5]): 195.0
C=CCN1CCC2CC(C1)C(O)c1ccccc12 (stereo not drawn) [R=H, R1=H, R2=H, CH2R3=CH2CHCH2, R4=OH, 4-allyl-2,3,4,5,6,7-hexahydro-1,6-methano-1H-4-benzazonin-7-ol] | – | 15.3 | 1.2 | 58 | 1.4 | 18.9 | 1.4 | Effect Ratio to Codeine Phosphate, Chemical Stimulus Method (guinea pigs [2]; guinea pigs, SO2 gas): 86.7; solubility in water (Solubility in water): water soluble; Effect Ratio to Codeine Phosphate, Mechanical Stimulus Method (guinea pigs [5]): 76.6
CN1CCC2CC(C1)C(O)c1ccccc12 (stereo not drawn) [R=H, R1=H, R2=H, CH2R3=CH3, R4=OH, 4-methyl-2,3,4,5,6,7-hexahydro-1,6-methano-1H-4-benzazonin-7-ol] | – | 6.58 | – | – | – | 9.21 | – | Effect Ratio to Codeine Phosphate, Chemical Stimulus Method (guinea pigs [2]; guinea pigs, SO2 gas): 201.4; Effect Ratio to Codeine Phosphate, Mechanical Stimulus Method (guinea pigs [5]): 157.1
OC1c2ccccc2C2CCN(CCc3ccccc3)CC1C2 (stereo not drawn) [R=H, R1=H, R2=H, CH2R3=drawing 37, R4=OH] | – | – | 1.8 | 45 | 2.0 | – | 4.5 | –
CC(C)=CCN1CCC2CC(Cc3ccccc32)C1 (stereo not drawn) [R=H, R1=H, R2=H, CH2R3=drawing 40, R4=H] | – | – | 1.0 | 65 | 1.4 | – | 1.5 | –
c1ccc(CCN2CCC3CC(Cc4ccccc43)C2)cc1 (stereo not drawn) [R=H, R1=H, R2=H, CH2R3=drawing 41, R4=H] | – | – | 0.8 | 35 | 2.0 | – | 5.0 | –
COc1ccc2c3c1O[C@H]1[C@@H](O)C=C[C@H]4[C@@H](C2)N(C)CC[C@@]341 [codeine phosphate, reference compound] | – | 13.3 | – | – | – | 14.5 | – | –
COc1ccc2c3c1O[C@H]1[C@@H](O)CC[C@H]4[C@@H](C2)N(C)CC[C@@]341 [dihydrocodeine phosphate, reference compound] | – | – | – | – | – | 4.65 | – | ED50 (guinea pigs [2]): 2.65 mg/kg
